From patent US11179398B2, “Purine derivative for use in the treatment or prevention of diseases caused by a nonsense mutation” (MUSÉUM NATIONAL D'HISTOIRE NATURELLE, priority 2016, dated 2021)
Entries after “also recorded” stand apart in the source; their conditions may differ. Like-named read-outs stand apart in the source and are kept apart here. Marks after values point to notes of the source that are not given here.

Tests used:
[1] = system: luciferase gene carrying a UGA premature stop codon; assay: Luciferase readthrough assay in transfected HeLa cells, UGA construct; format: cell-based, human; conditions: for correcting activity of nonsense mutations (luciferase activity): 25 μM, 24 hours; for concentration at which the molecule starts to significantly correct the nonsense mutation: dose-response 0.39 μM to 600 μM; for concentration of maximum correction effectiveness: luciferase activity
From the text: The DMSO represents the negative control.

[2] = system: Salmonella typhimurium TA1537; assay: Compensatory mutation test on bacteria, TA1537; conditions: positive control, TA1537, with S9, 5.0 μg/well
Protocol: (§5) The test was conducted in the absence or presence of a metabolic solution called S9 mixture (S9 mixture of rat liver treated with aroclor. The concentration of the S9 fraction in the S9 mixture is of 10%).
(§6) The solvent used is dimethyl sulfoxide (DMSO), the volume containing the molecule to be tested or DMSO alone is of 25 μl per well.
(§7) For the tests conducted in the presence of the S9 mixture, 2-anthranine at 1 μg/well for the TA98, TA100 and TA1535 strains or of 5 μg/well for the TA102 or TA1537 strains.
(§8) The treatment in the absence of presence of the S9 mixture was conducted by adding it directly in the wells.

[3] = system: Salmonella typhimurium TA98; assay: Compensatory mutation test on bacteria, TA98; conditions: positive control, TA98, with S9, 1.00 μg/well
Protocol: as §5, §6, §7, §8

[4] = system: Salmonella typhimurium TA1535; conditions: positive control
Protocol: (§1) The positive controls used are:
(§2) The experiments were conducted once in triplicate.

[5] = system: Salmonella typhimurium TA100; conditions: positive control
Protocol: as §1, §2

[6] = system: Salmonella typhimurium TA102; conditions: positive control, TA102, with S9, 5.00 μg/well
Protocol: as §1, §2

L5178Y TK+/- cells [7] = assay: In vitro test of the micronuclei; conditions: for treated/solvent ratio: positive control
Protocol: (§9) The cells used are L5178Y TK^+/− cells obtained from ATCC (American Type Culture Collection, Manassas, USA) via Biovalley (Marne-la-Vallée, France) for the induction of micronuclei.
(§10) In the test with metabolic activation, the culture medium is supplemented with 5% of the S9 mixture, thus the final concentration of S9 in the treated medium is of 2%.
(§11) The cells were treated for 24 hours in the absence of the S9 mixture or treated for 3 hours followed by 24 hours of culture without treatment when the S9 mixture was present in the culture medium.
(§12) The experiment was conducted and 1000 single-nucleus cells were analysed per culture.
(§13) The assessment of the cytotoxicity was determined by measuring the doubling of the cell population at the end of the experiment.

Calu-6 cells [8] = assay: Phenotype of culture cells under white light microscope; format: cell-based
[9] = system: gene TP53 carrying an UAA nonsense mutation at codon 136 (Caov-3 cells); assay: Western blot of p53 re-expression in Caov-3 cells; format: cell-based
Protocol: (§3) For the purpose of validating the above screening results, the correction of nonsense mutations was measured for endogenous genes carrying nonsense mutations in an immortalised cell line of lung cancer Calu-6 (ATCC, USA) comprising a UGA mutation in the codon 196 of the gene TP53 (FIG. 2A), an immortalised cell line Caco-2 carrying a UAG mutation at the level of codon 204 (FIG. 2B) and an immortalised cell line Caov-3 carrying a UAA nonsense mutation at the level of codon 136 (FIG. 2C).
(§4) The proteins are extracted from the cell in a lysis buffer, then analysed by SDS-PAGE gel at 10% as previously described in Gonzalez-Hilarion et al. (2012). Briefly, after migration, the proteins are transferred onto a nitrocellulose membrane and placed in the presence of an anti-p53 antibody (D01; Santa-Cruz), and then of a secondary anti-mouse antibody (Jackson Immuno Research).

L5178Y TK+/- cells [10] = conditions: mouse
Protocol: as §9, §10, §11, §12, §13

[11] = system: luciferase gene carrying a UAA premature stop codon; assay: Luciferase readthrough assay in transfected HeLa cells, UAA construct; conditions: 25 μM
From the text: (§14) The position of the premature stop codon is such that if the protein synthesis stops at the premature stop codon, the synthesised truncated luciferase protein is not functional.

[12] = system: luciferase gene carrying a UAG premature stop codon; assay: Luciferase readthrough assay in transfected HeLa cells, UAG construct; conditions: 25 μM
From the text: as §14

[13] = system: p53 target genes p21 and Noxa in Calu-6 cells; assay: Expression of p53 target genes p21 and Noxa by RT-PCR; format: cell-based; conditions: 20 hours
From the text: The RNAs were purified with RNazol (MRC) and underwent a RT-PCR as described in Gonzalez-Hilarion et al. (2012). The resulting cDNA were then amplified after 35 cycles of PCR using the p21 mRNA primers (sense: 5′-[…]-3′; SEQ ID NO: 5; antisense 5′-[…]-3′; SEQ ID NO: 6); GADD45 mRNA (sense: 5′-[…]-3′; SEQ ID NO: 7; antisense 5′-[…]-3′; SEQ ID NO: 8); NOXA mRNA (sense: 5′-[…]-3′; SEQ ID NO: 9; antisense 5′-[…]-3′; SEQ ID NO: 10).

[14] = system: NMD (mRNA p53 in Calu-6 cells); assay: NMD inhibition: RT-PCR of p53 mRNA carrying a UGA nonsense mutation; format: cell-based; conditions: 6.25 μM, 25 μM, 24 hours
From the text: The RNAs were purified with RNazol (MRC) and underwent a RT-PCR as described in Gonzalez-Hilarion et al. (2012). The resulting cDNA were then amplified after 35 cycles of PCR using the p53 sense primer (5′-[…]-3′; SEQ ID NO: 1), antisense p53 (5′-[…]-3′; SEQ ID NO: 2), sense GAPDH (5′-[…]-3′; SEQ ID NO: 3), antisense GAPDH (5′-[…]-3′; SEQ ID NO: 4).

Calu-6 cells [15] = assay: Cellular growth and apoptosis measurement; format: cell-based
Protocol: Briefly, the cells are removed from their support using typisin and centrifuged for 5 minutes at 200 g.

[16] = system: luciferase gene carrying a premature UGA stop codon; assay: Synergy with clitocin, luciferase UGA readthrough assay in HeLa cells; format: cell-based, human; conditions: DAP alone at 25 μM
Protocol: The luciferase activity is measured by adding the SteadyLite plus substrate (Perkin Elmer) to the culture medium and the plates are read with a Tristar luminometer (Berthold). The plate is read twice.

[17] = system: gene TP53 carrying an UGA nonsense mutation at codon 196 (Calu-6 cells); assay: Western blot of p53 re-expression in Calu-6 cells; format: cell-based
Protocol: as §3, §4

[18] = system: gene TP53 carrying an UAG mutation at codon 204 (Caco-2 cells); assay: Western blot of p53 re-expression in Caco-2 cells; format: cell-based
Protocol: as §3, §4

[19] = TA1535, without S9, 0.5 μg/well

Sc1ncc2[nH]cnc2n1 [2-mercaptopurine]
correcting activity of nonsense mutations (luciferase activity) ([1]; HeLa cells): do not have a correcting activity; also recorded: no correction activity

Nc1ccc2cc3ccccc3cc2c1 [2AM, 2-anthramine]
average number of revertants per well [2]: 36.0
treated/solvent ratio [2]: 13.5
average number of revertants per well [3]: 686.7
treated/solvent ratio [3]: 98.1
average number of revertants per well ([4]; TA1535, with S9, 1.0 μg/well): 137.7
treated/solvent ratio ([4]; TA1535, with S9, 1.0 μg/well): 41.3
average number of revertants per well ([5]; TA100, with S9, 1.0 μg/well): 696.0
treated/solvent ratio ([5]; TA100, with S9, 1.0 μg/well): 17.4
average number of revertants per well [6]: 91.0
treated/solvent ratio [6]: 2.0

Sc1ncnc2nc[nH]c12 [6-mercaptopurine]
correcting activity of nonsense mutations (luciferase activity) ([1]; HeLa cells): do not have a correcting activity; also recorded: no correction activity

O=P1(N(CCCl)CCCl)NCCCO1 (stereo not drawn) [CPA, cyclophosphamide, reference compound]
treated/solvent ratio (L5178Y TK+/- cells [7]; with S9 mix, 6 μg/mL): 60.0 **

Nc1nc(N)c2nc[nH]c2n1 [DAP, 2,6-diaminopurine]
concentration from which more dying cells (round appearance) are observed (Calu-6 cells [8]): ≥ 600 µM
re-expression of protein p53 [9]: does not make it possible to re-express the protein p53
DP (% of the control substance) (L5178Y TK+/- cells [10]; 3 h, 0.01 nM): 76 % of the control substance
DP (% of the control substance) (L5178Y TK+/- cells [10]; 3 h, 0.02 nM): 89 % of the control substance
DP (% of the control substance) (L5178Y TK+/- cells [10]; 3 h, 0.04 nM): 91 % of the control substance
DP (% of the control substance) (L5178Y TK+/- cells [10]; 3 h, 0.07 nM): 74 % of the control substance
DP (% of the control substance) (L5178Y TK+/- cells [10]; 3 h, 0.29 nM): 73 % of the control substance
DP (% of the control substance) (L5178Y TK+/- cells [10]; 3 h, 0.58 nM): 54 % of the control substance
DP (% of the control substance) (L5178Y TK+/- cells [10]; 3 h, 2.33 nM): 44 % of the control substance
DP (% of the control substance) (L5178Y TK+/- cells [10]; 3 h, 4.66 nM): 40 % of the control substance
reduction of the doubling of the population (L5178Y TK+/- cells [10]; 24 h): 79-100%
DP (% of the control substance) (L5178Y TK+/- cells [10]; 24 h, 0.01 nM): 91 % of the control substance
DP (% of the control substance) (L5178Y TK+/- cells [10]; 24 h, 0.02 nM): 121 % of the control substance
DP (% of the control substance) (L5178Y TK+/- cells [10]; 24 h, 0.04 nM): 78 % of the control substance
DP (% of the control substance) (L5178Y TK+/- cells [10]; 24 h, 0.07 nM): 97 % of the control substance
effect on the UAA codon (luciferase activity) [11]: no effect
effect on the UAG codon (luciferase activity) [12]: no effect
doses with severe cytotoxicity (L5178Y TK+/- cells [7]; in the absence of the S9 mixture, 24 hours): greater than 0.15 mM
doses with slight cytotoxicity (L5178Y TK+/- cells [7]; in the presence of the S9 mixture, 3 hours + 24 hours): greater than 0.07 mM
genotoxic effect (frequency of cells containing micronuclei) (L5178Y TK+/- cells [7]; in the presence or absence of the S9 mixture, listed as 2,6-DAP): no genotoxic effect; also recorded: does not induce any damage to the chromosomes or cell machinery involved in the cell division
concentration from which the expression of the target genes of p53 increases [13]: ≥ 6.25 µM
inhibition of NMD (stabilising an mRNA carrying a premature stop codon) [14]: not an NMD inhibitor
percentage of apoptotic cells (Calu-6 cells [15]; DAP 6.25 μM or 25 μM, D4 to D10): ≤ 15%
luminescence measured [16]: 50,000
correcting activity of nonsense mutations (luciferase activity) ([1]; HeLa cells): able to correct the UGA stop codons much more effectively than G418 or ataluren
correction of the nonsense UGA mutation (luciferase activity) compared with G418 at 25 μM ([1]; DAP at 25 μM, HeLa cells): eighteen times more effective
correction of the nonsense UGA mutation (luciferase activity) compared with G418 at 2400 μM ([1]; DAP at 25 μM, HeLa cells): more than three times more effective
EC50 ([1]; Homo sapiens, HeLa): 54 µM
correction of the UGA nonsense mutation compared with G418 ([1]; both at 6.25 μM): five times higher
concentration at which the molecule starts to significantly correct the nonsense mutation [1]: 6.25 µM
concentration of maximum correction effectiveness ([1]; HeLa cells): 100 µM
synthesis of readthrough protein ([17]; 25 μM of DAP versus G418 600 μM): greater than with G418
minimal concentration at which wild-size protein p53 (p53 FL) is detected ([17]; Calu-6 cells, 20 hours, Western blot): 6.25 µM
concentration of maximum production of p53 FL ([17]; Calu-6 cells, Western blot): 25 µM
re-expression of protein p53 [18]: does not make it possible to re-express the protein

CN[C@@H]1[C@@H](O)[C@@H](O[C@@H]2[C@@H](O)[C@H](O[C@H]3O[C@H]([C@@H](C)O)[C@@H](O)[C@H](O)[C@H]3N)[C@@H](N)C[C@H]2N)OC[C@]1(C)O [G418]
percentage of apoptotic cells (Calu-6 cells [15]; G418 600 μM, from the 4th day of culture): > 30%
concentration at which the molecule starts to significantly correct the nonsense mutation [1]: 6.25 µM
concentration of maximum correction effectiveness ([1]; HeLa cells): > 600 µM

CO[C@@]12[C@H](COC(N)=O)C3=C(C(=O)C(C)=C(N)C3=O)N1C[C@@H]1N[C@@H]12 [MMC, mitomycin C, reference compound]
treated/solvent ratio (L5178Y TK+/- cells [7]; without S9 mix): 100.0 **

[N-]=[N+]=[N-] [NaN3, sodium azide]
average number of revertants per well [4, 19]: 206.7
treated/solvent ratio [4, 19]: 77.5
average number of revertants per well ([5]; TA100, without S9, 1.0 μg/well): 232.3
treated/solvent ratio ([5]; TA100, without S9, 1.0 μg/well): 5.5

O=C(O)c1cccc(-c2noc(-c3ccccc3F)n2)c1 [ataluren]
correcting activity of nonsense mutations (luciferase activity) ([1]; HeLa cells): ineffective; also recorded: no correction activity
